# Results from PubChem BioAssay (NCI).
#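 Following 48 hours of exposure in 96-well plates, responses at five concentrations were used to interpolate endpoints linearly. GI50: concentration for 50% inhibition of growth. TGI: total growth inhibition.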
# Assays:
# Experiment in all cases: NCI anticancer screen, dose series, 48 h
# MALME-3M melanoma = test system: MALME-3M melanoma
# HCT-15 colon = test system: HCT-15 colon
# HT29 colon = test system: HT29 colon
# ACHN renal = test system: ACHN renal
# SK-MEL-5 melanoma = test system: SK-MEL-5 melanoma
# OVCAR-8 ovarian = test system: OVCAR-8 ovarian
# NCI-H23 lung = test system: NCI-H23 lung
# SW-620 colon = test system: SW-620 colon
# UO-31 renal = test system: UO-31 renal
# BT-549 breast = test system: BT-549 breast
SMILES,TGI (MALME-3M melanoma) [µM],TGI (HCT-15 colon) [µM],TGI (HT29 colon) [µM],TGI (ACHN renal) [µM],TGI (SK-MEL-5 melanoma) [µM],TGI (OVCAR-8 ovarian) [µM],TGI (NCI-H23 lung) [µM],TGI (SW-620 colon) [µM],TGI (UO-31 renal) [µM],GI50 (HCT-15 colon) [µM],GI50 (HT29 colon) [µM],GI50 (ACHN renal) [µM],GI50 (SK-MEL-5 melanoma) [µM],GI50 (OVCAR-8 ovarian) [µM],GI50 (NCI-H23 lung) [µM],GI50 (SW-620 colon) [µM],GI50 (BT-549 breast) [µM],TGI (BT-549 breast) [µM],GI50 (UO-31 renal) [µM]
CS(=O)(=O)OCc1c(O)c2c(c(O)c1COS(C)(=O)=O)C(=O)C=CC2=O,> 100,> 100,> 100,> 100,> 100,> 100,> 100,> 100,> 100,–,–,–,–,–,–,–,–,–,–
CC[N+](CC)(CC)/C(=N/S(=O)(=O)c1cc(C)c(Cl)cc1S)[N-]S(=O)(=O)c1ccc(Cl)cc1,–,> 100,> 100,> 100,> 100,> 100,> 100,> 100,> 100,–,–,–,–,–,–,–,–,–,–
COc1ccc(-n2cc(-c3ccc(OC)c(OC)c3)nc2SCc2ccccc2)cc1Cl,–,> 100,> 100,> 100,18.6,> 100,> 100,> 100,> 100,20,17,38.9,5.78,25.9,22.7,29.9,14.9,42.5,15.2
CC(O)=NC(Cc1ccc2ccccc2c1)C(O)=NC(Cc1ccc(Cl)cc1)C(O)=NC(Cc1c[nH]c2ccccc12)C(O)=NC(CO)C(O)=NC(Cc1ccc(O)cc1)C(O)=NC(CCCN=C(N)N)C(O)=NC(CC(C)C)C(O)=NC(CCCN=C(N)N)C(=O)N1CCCC1C(O)=NC(C)C(=N)O (stereo not given),> 100,> 100,> 100,> 100,> 100,> 100,> 100,> 100,63.1,–,–,–,–,–,–,–,–,> 100,–
C[C@]12CC[C@H](O)CC1=CC[C@@H]1[C@@H]2CC[C@]2(C)C(=O)CC[C@@H]12,> 100,> 100,> 100,> 100,> 100,> 100,> 100,> 100,> 100,–,–,–,–,–,–,–,–,> 100,–
CCCc1ccc(OCC(=O)N/N=C/c2c(-c3ccccc3)[nH]c3ccccc23)cc1,> 100,59.8,29.8,> 100,20.8,53.4,38.2,> 100,> 100,–,–,–,–,–,–,–,–,34,–
O=C(/N=C/c1c(O)c2ccccc2oc1=O)NC1CCCCC1,–,> 100,> 100,> 100,> 100,> 100,> 100,> 100,> 100,–,–,–,–,–,–,–,–,–,–
CO[C@]12C[C@H](CNC(=O)c3cc(Br)c(Br)[nH]3)O[C@H]1NC(=O)N2,> 100,> 100,> 100,> 100,> 100,> 100,> 100,> 100,> 100,–,–,–,–,–,–,–,–,> 100,–
NC1=NS(=O)(=O)Nc2nc(-c3cccs3)[nH]c21,> 100,> 100,> 100,> 100,> 100,> 100,> 100,> 100,> 100,–,–,–,–,–,–,–,–,–,–
C[n+]1c(-c2ccc(/C=N\NC(=O)c3ccc(C(=O)N/N=C/c4ccc(-c5cn6ccsc6[n+]5C)cc4)cc3)cc2)cn2ccsc21,47.7,37.8,36,33.3,34,40.8,50.9,40,32.3,–,–,–,–,–,–,–,–,42.7,–
COc1c2ccoc2c(S(=O)(=O)Nc2ccc(Cl)cc2)c2oc(C)cc(=O)c12,> 100,> 100,> 100,–,> 100,> 100,> 100,> 100,> 100,–,–,–,–,–,–,–,–,–,–
